Source: US8461305B2, “L-fucose α1→6 specific lectin” (J-Oil Mills, Inc., priority 2008, dated 2013)

Test: frontal affinity chromatography (FAC), association constant to PA sugar chains having α1→6 L-fucose
Format: binding
Conditions: 25 degrees C.
Experimental: The following section will describe a method of calculating an association constant by frontal affinity chromatography (FAC). This method is based on the following principle. […] Then, the elution front end (front) is observed immediately. When there is an affinity with lectin, the elution of the sugar chain is delayed.
The preparation of a lectin column used in the apparatus is performed in the method as described below. 1. Purified lectin is dissolved in 0.1 to 0.2M of NaHCO3 buffer solution (pH 8.3 to 8.5). 2. The lectin is immobilized, via a lectin primary amino group, a carrier such as NHS activated sepharose. 3. Then, the lectin is blocked by Tris buffer solution including primary amine or ethanolamine for example. 4. Lectin-sepharose is suspended in 10 mM Tris buffer, including 0.8% of NaCl (pH 7.4, TBS). Then, lectin immobilized resin is filled in a miniature column (φ2 mm×10 mm, 31.4 μl). 5. The miniature column in which the lectin immobilized resin is filled is protected by a holder and the lectin column is connected to an FAC automatic analysis apparatus (FAC-1, SHIMADZU CORPORATION).
Then, the elution of the PA sugar chain from the column is detected by a fluorescence detector (excitation wavelength/fluorescence wavelength: 310 nm/380 nm).
Based on the detection data, by using the elution front end (Vo) of the sugar chain (PA rhamnose) not interacting with lectin as a reference, the delay (V−Vo) of the elution front end (V) of a sugar chain interacting with lectin is calculated as an interaction strength. Then, based on the following FAC criteria expressions, the association constant (Ka) between the sugar chain and lectin is calculated based on V−Vo and Bt. If the interaction strength (V−Vo value) and the association constant are higher, a higher affinity is caused between lectin and an L-fucose α1→6 sugar chain.
[In the formula, A means substance used for the elution, Ao means the initial concentration of the substance A, B means a immobilized ligand, V means the elution volume, Vo means the elution front end volume of the substance not interacting with the immobilized ligand B at all, Bt means an effective ligand amount, Kd means a dissociation constant (an inverse of the association constant)].
Pyridylaminated (PA) sugar chains shown in FIG. 1 and FIG. 2 were used to frontal affinity chromatography (FAC) analysis. PA sugars were purchased from TAKARA BIO INC., SEIKAGAKU BIOBUSINESS CORPORATION, and Masuda Chemical Industries co., LTD. PA sugar were also obtained by pyridylaminating, by GlycoTAG®(TAKARA BIO INC.), an unlabeled sugar chain or a sugar chain obtained by subjecting a sugar chain to enzyme digestion for example.
Lectin was dissolved in 0.2 M NaHCO3 buffer solution (pH 8.3) including 0.5 M NaCl and coupled to the NHS-activated sepharose (GE Healthcare Bioscience) by following the manufacturer's instructions. Then, lectin immobilized sepharose was suspended in 10 mM Tris buffer (pH 7.4, TBS) including […] and the resultant matter was filled in a miniature column (φ2 mm×10 mm, 31.4 μl).
Frontal affinity chromatography was performed using FAC automatic analysis apparatus (FAC-1, SHIMADZU CORPORATION). In particular, the above-prepared lectin column was inserted to a stainless steel holder and the holder was connected to FAC-1 apparatus. The flow rate and the column temperature were maintained at 0.125 ml/min and 25 degrees C., respectively. After the miniature column was equilibrated by the TBS, an excessive volume (0.5 ml to 4 ml) of a PA sugar chain (3.75 nM or 7.5 nM) was continuously inputted to the column using an automatic sampling apparatus.
The fluorescent strength of the eluate of the PA sugar (excitation wavelength of 310 nm and fluorescence wavelength of 380 nm) was monitored to measure the interaction strength [a difference of the front end eluate to the standard oligosaccharide (PA rhamnose): V−V0]. […]

Row | Substance | association constant Ka (Sugar chain No. 015) | association constant Ka (Sugar chain No. 201) | association constant Ka (Sugar chain No. 202) | association constant Ka (Sugar chain No. 203) | association constant Ka (Sugar chain No. 401) | association constant Ka (Sugar chain No. 402) | association constant Ka (Sugar chain No. 403) | association constant Ka (Sugar chain No. 404) | association constant Ka (Sugar chain No. 405) | association constant Ka (Sugar chain No. 406) | association constant Ka (Sugar chain No. 410) | association constant Ka (Sugar chain No. 418) | association constant Ka (Sugar chain No. 602)
1 | Naematoloma sublateritium lectin [NSL] | 36000 M⁻¹ | 38000 M⁻¹ | 39000 M⁻¹ | 30000 M⁻¹ | 51000 M⁻¹ | 36000 M⁻¹ | 52000 M⁻¹ | 43000 M⁻¹ | 50000 M⁻¹ | 23000 M⁻¹ | 31000 M⁻¹ | 35000 M⁻¹ | 19000 M⁻¹
2 | Lepista sordida lectin [LSL, novel lectin purified from the mushroom Lepista sordida] | 190000 M⁻¹ | 230000 M⁻¹ | 230000 M⁻¹ | 200000 M⁻¹ | 220000 M⁻¹ | 150000 M⁻¹ | 220000 M⁻¹ | 260000 M⁻¹ | 220000 M⁻¹ | 160000 M⁻¹ | 160000 M⁻¹ | 160000 M⁻¹ | 130000 M⁻¹
